Laboratory results taken from US10947196B2, “Beta adrenergic agonist and methods of using the same” (CURASEN THERAPEUTICS, INC., priority 2019, dated 2021).
Where two headings read alike, the source gives them in different places.

Columns and labels:
[1] = target: β1-adrenergic receptor (Homo sapiens (Human), UniProt P08588); assay: cAMP Gs dynamic HTRF assay, β1 expressing CHO cells; format: cell-based; settings: B1-AR
Method: (§1) cAMP homogeneous time-resolved fluorescence (HTRF). Compound efficacy was determined using the cAMP Gs dynamic HTRF assay (Cisbio, catalog #62AM4PEC) largely following the manufacturer's instructions, also detailed below.
(§2) Compound preparation. […] Standard serial dilution curves were 10-point, 5-fold dilutions starting from a highest concentration of 10 μM. […] Assay plates were centrifuged at 500×g for 10 seconds. Compounds and IBMX were prepared at 2× final dose to compensate for addition of cells.
(§3) Cell preparation. 1× stimulation buffer, washing PBS (Dulbecco's phosphate-buffered saline, −Mg −Ca; Caisson Labs, catalog #PBL01), assay PBS (Dulbecco's phosphate-buffered saline, +Mg, +Ca; Caisson Labs, catalog #PBL02) and Versene (0.02% EDTA disodium salt solution in PBS without calcium or magnesium; Caisson Labs, catalog #EDL01) were pre-warmed to 37° C. Cells expressing beta-adrenergic receptor were washed in washing PBS to remove growth medium and then released from the surface by incubating with Versene for 5-10 minutes at 37° C. Cells were harvested using assay PBS, counted manually by hemocytometer or by an automated cell counter, pelleted by centrifugation (200×g, 5 minutes) and resuspended in 37° C. 1× stimulation buffer to a final density of 1.5×10^6 cells/mL. 5 μL of the suspended cell solution (7500 cell total) were added to all wells of the 384 well assay plate, the assay plate was covered with an Axygen® plate seal (Corning PCR-SP) and incubated in a humidified 37° C. environment supplemented with 5% CO2 for 30 minutes.
(§4) HTRF reagent addition, reading and data analysis. After 30 minutes of cell stimulation with test compound, the assay plates were centrifuged at 500×g for 10 seconds, and incubation was stopped with the addition of 5 μL cAMP-D2 acceptor, diluted 1:21 in detection and lysis buffer 2 (Cisbio 62CL2FDF) was added to all cells. Subsequently, 5 μL Anti-cAMP-Eu Donor, diluted 1:21 in detection and lysis buffer 2, was added to cells. Plates were sealed and reactions gently ‘vortexed’ at 900 rpm on a Heidolph Titramax 1000 for at least 30 minutes at room temperature. Plates were centrifuged again at 500×g for 10 seconds, and HTRF was measured using a Tecan Spark plate reader at 50 flashes per well. […] Potency estimates (EC50) were derived from the four-parameter nonlinear regression of the concentration-effect curve and an estimate of relative efficacy was determined by comparing the magnitude of the test compound HTRF signal window (min−max dose) with the signal window of the full agonist control, isoproterenol.

[2] = target: β2 adrenergic receptor (Homo sapiens (Human), UniProt P07550); assay: cAMP Gs dynamic HTRF assay, β2 expressing CHO cells; format: cell-based; settings: B2-AR
Method: as §1, §2, §3, §4

[3] = CHO-K cells, read-out: Average EC50 [Receptor subtype: B1-AR, Cell type: CHO-K]
[4] = CHO-K1 (HitHunter), read-out: Average pEC50 [Receptor subtype: B2-AR, Cell type: CHO-K1 (HitHunter)] (converted)
[5] = CHO-K cells, read-out: Average EC50 [Receptor subtype: B2-AR, Cell type: CHO-K]
[6] = CHO-K1 (HitHunter), read-out: Average pEC50 [Receptor subtype: B1-AR, Cell type: CHO-K1 (HitHunter)] (converted)

β1-adrenergic receptor, sequence (P08588 whole entry, species assumed): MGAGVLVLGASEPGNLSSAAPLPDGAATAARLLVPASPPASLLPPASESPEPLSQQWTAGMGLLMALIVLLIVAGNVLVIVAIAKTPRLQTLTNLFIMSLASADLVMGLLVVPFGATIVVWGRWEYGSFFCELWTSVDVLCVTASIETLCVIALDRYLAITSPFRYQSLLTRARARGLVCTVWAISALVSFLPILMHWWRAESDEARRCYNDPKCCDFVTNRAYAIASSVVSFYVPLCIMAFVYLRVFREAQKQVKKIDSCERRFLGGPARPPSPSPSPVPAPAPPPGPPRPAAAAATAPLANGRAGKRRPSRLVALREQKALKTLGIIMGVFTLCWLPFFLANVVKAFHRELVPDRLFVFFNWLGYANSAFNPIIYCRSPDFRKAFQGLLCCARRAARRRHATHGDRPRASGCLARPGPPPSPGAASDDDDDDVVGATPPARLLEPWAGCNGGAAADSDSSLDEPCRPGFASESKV
β2 adrenergic receptor, sequence (P07550 whole entry, species assumed): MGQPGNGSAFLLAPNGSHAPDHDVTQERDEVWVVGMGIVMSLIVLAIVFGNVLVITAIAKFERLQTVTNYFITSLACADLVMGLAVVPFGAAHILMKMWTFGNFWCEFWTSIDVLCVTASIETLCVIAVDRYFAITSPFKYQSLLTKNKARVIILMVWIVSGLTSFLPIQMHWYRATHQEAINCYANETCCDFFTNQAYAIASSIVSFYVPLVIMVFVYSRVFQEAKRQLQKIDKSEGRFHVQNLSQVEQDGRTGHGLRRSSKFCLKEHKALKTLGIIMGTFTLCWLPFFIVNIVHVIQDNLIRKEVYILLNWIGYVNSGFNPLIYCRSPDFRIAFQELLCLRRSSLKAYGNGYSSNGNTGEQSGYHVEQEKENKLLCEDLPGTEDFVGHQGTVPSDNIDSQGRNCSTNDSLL

| SMILES | Average pEC50 [Receptor subtype: B1-AR; Cell type: CHO-K1 (HitHunter)] ([1]; CHO-K1 (HitHunter)) | EC50 [1, 3] [nM] | EC50 [2, 4] [nM] | EC50 [2, 5] [nM] | EC50 [1, 6] [nM] |
| --- | --- | --- | --- | --- | --- |
| CC(C)(C)NC[C@H](O)c1cccc(N2CC3CCCC3C2)n1 (stereo partly shown) [Compound 03-135] | C (C = <7-6) | 100 to 1000 | < 10 | < 10 | – |
| CC(C)(C)NC[C@H](O)c1cccc(N2CCCCC2)n1 [Compound 03-137] | – | 100 to 1000 | < 10 | < 10 | 100 to 1000 |
| Cc1ccc(-c2cccc([C@@H](O)CNC(C)(C)C)n2)cc1 [Compound 03-143] | – | > 1000 | 100 to 1000 | – | > 1000 |
| CC(C)(C)NC[C@H](O)c1cccc(-c2ccc(F)cc2)n1 [Compound 03-145] | – | 10 to 100 | < 10 | < 10 | 10 to 100 |
| Cc1cccc(-c2cccc([C@@H](O)CNC(C)(C)C)n2)c1 [Compound 03-147] | – | 10 to 100 | < 10 | < 10 | 10 to 100 |
| Cc1cccc(-c2cccc([C@H](O)CNC(C)(C)C)n2)c1 [Compound 03-148] | – | 100 to 1000 | 100 to 1000 | 100 to 1000 | 100 to 1000 |
| Cc1ccccc1-c1cccc([C@@H](O)CNC(C)(C)C)n1 [Compound 03-149] | – | 100 to 1000 | < 10 | < 10 | 100 to 1000 |
| CC(C)(C)NC[C@H](O)c1cccc(-c2cccnc2)n1 [Compound 03-151] | B (B = 8-7) | 10 to 100 | < 10 | < 10 | – |
| CC(C)(C)NC[C@@H](O)c1cccc(-c2cccnc2)n1 [Compound 03-152] | D (D < 6) | > 1000 | 10 to 100 | 100 to 1000 | – |
| CN(C)c1cccc([C@H](O)CNC(C)(C)C)n1 [Compound 03-154] | – | > 1000 | > 1000 | > 1000 | > 1000 |
| CC(C)(C)NC[C@H](O)c1cccc(-c2ccccc2F)n1 [Compound 03-155] | – | 10 to 100 | < 10 | < 10 | 10 to 100 |
| CC(C)(C)NC[C@@H](O)c1cccc(-c2ccccc2F)n1 [Compound 03-156] | – | > 1000 | 10 to 100 | 10 to 100 | > 1000 |
| CC(C)(C)NC[C@H](O)c1cccc(N2CCOCC2)n1 [Compound 03-157] | A (A > 8) | < 10 | < 10 | < 10 | – |
| CC(C)(C)NC[C@@H](O)c1cccc(N2CCOCC2)n1 [Compound 03-158] | D (D < 6) | > 1000 | 10 to 100 | 10 to 100 | – |
| CCN(CC)c1cccc([C@H](O)CNC(C)(C)C)n1 [Compound 03-160] | – | 100 to 1000 | 100 to 1000 | – | – |
| CC(C)(C)NC[C@H](O)c1ccc2cccc(C(F)(F)F)c2n1 [Compound 03-163] | – | < 10 | – | < 10 | – |
| CC(C)(C)NC[C@@H](O)c1ccc2cccc(C(F)(F)F)c2n1 [Compound 03-164] | – | 100 to 1000 | – | < 10 | – |
| CC(C)(C)NC[C@H](O)c1ccc2ccccc2n1 [Compound 03-165] | – | < 10 | – | < 10 | – |
| CC(C)(C)NC[C@@H](O)c1ccc2ccccc2n1 [Compound 03-166] | – | 100 to 1000 | – | 100 to 1000 | – |
| CC(C)(C)NC[C@@H](O)c1cccc(C(C)(F)F)n1 [Compound 03-170] | D (D < 6) | > 1000 | 100 to 1000 | 100 to 1000 | – |
| CC(C)(C)NC[C@@H](O)c1nc(C(F)(F)F)cc2ccccc12 [Compound 03-172] | – | > 1000 | – | > 1000 | – |
| CC(C)c1cccc([C@H](O)CNC(C)(C)C)n1 [Compound 03-176] | – | > 1000 | 100 to 1000 | 100 to 1000 | > 1000 |
| COc1ccc(CC(C)(C)NC[C@@H](O)c2cccc(C(F)(F)F)n2)cc1 [Compound 03-183] | – | > 1000 | 100 to 1000 | 100 to 1000 | > 1000 |
